Experiments:
[1] = Pharmacokinetics of four compounds in plasma after oral administration of GSBXD and its plus-minus prescriptions in normal rats (LC-MS/MS); type: in vivo; details: Wistar, rat
Procedure: Plasma samples (200 μL) and IS solution (50 μL, 1215 ng/mL for diphenhydramine, 476 ng/mL for chloromycetin) were added in an Eppendorf tube, and this mixture was extracted with methanol (550 μL) by shaking on a vortex-mixer for 2 min, and centrifuged for 10 min at 13,000 rpm. The contents were evaporated to dryness on a rotary evaporator at 37 °C. The residue was reconstituted in methanol (100 μL) and centrifuged (13,000 rpm for 10 min). The supernatant was transferred to an auto sample vail and an aliquot of 5 μL was injected onto the UPLC-MS/MS system for analysis.
The developed and validated method was applied to the pharmacokinetic evaluation of the four compounds after oral administration of different fractions to normal rats (Figure 3).
Raw materials of Glycyrrhiza uralensis Fisch (Gancao), Paeonia lactiflora Pall (Baishao), Pinellia ternata Breit (Banxia) in a weight ratio of 10:15:9 (50, 75 and 45 g) were crushed into small pieces. The mixture was refluxed with 1.7 L water for 1 h and with 1.36 L water for 1 h. The filtrates were combined and concentrated below 70 °C to obtain a certain volume at the ratio of 1.5:1 (w/w, weight of all constituting herbs and the extract filtrates) under vacuum. Powder of Euphorbia kansui T. N. Liou ex T. P. Wang. […] The same method was used to prepare GSBXD minus Gancao (GSBXD-GC); GSBXD minus Gansui (GSBXD-GS); GSBXD minus Gancao and Gansui (GSBXD-GG); the extract of Gancao and Gansui (GG) and the extract of Gancao (GC). The extracts contained 19.21, 18.73, 46.53, 15.82 μg/mL of compounds 1–4 in GSBXD; 0, 0, 51.03, 17.88 μg/mL of compounds 1–4 in GSBXD-GC; 19.21, 18.73, 46.53, 15.82 μg/mL of compounds 1–4 in GSBXD-GS; 0, 0, 51.03, 17.88 μg/mL of compounds 1–4 in GSBXD-GG; 20.03, 17.09, 0, 0 μg/mL of compounds 1–4 in GG, 20.03, 17.09, 0, 0 μg/mL of compounds 1–4 in GC.
For pharmacokinetic studies, Wistar rats were divided into ten groups (n = 6 per group). Rats in the normal and model GSBXD groups were administered GSBXD at a dose of 15 mL/kg intragastrically. In the normal and model GSBXD-GC groups, GSBXD-GC (12 mL/kg) was administrated. In the normal and model GSBXD-GS groups, GSBXD-GS (15 mL/kg) was administrated. In the normal and model GSBXD-GC-GS groups, GSBXD-GC-GS (12 mL/kg) was administrated. In the normal and model GG groups, GG (7.5 mL/kg) was administrated. Blood samples were collected at specific time points before (0 min) and after oral administration (5, 10, 20, 40, 60, 120, 240, 360, 480, 600 and 1440 min). A total of 720 blood samples were collected. All the blood samples were immediately centrifuged at 2500 rpm for 10 min to obtain plasma, which was labeled and frozen at −80 °C until analysis. Blank plasma was obtained from the rats without oral administration and was used to investigate the assay development and validation.
To determine the pharmacokinetic parameters of compounds 1–4 in different groups, concentration–time data were analyzed by DAS 3.2 software (Mathematical Pharmacology Professional Committee of China, Shanghai, China, 2011). Data were expressed as the mean […] standard deviation (S.D.) with triplicate measurements. The identification of significances between different groups was carried out with Student’s t-test. A P value < 0.05 was considered statistically significant.

[2] = Stability of the four compounds in rat plasma QC samples (freeze-thaw, storage at −80 °C, autosampler); type: physicochemical; details: for Stability, Autosampler for 24 h, Accuracy: processed rat plasma, auto-sampler 4 °C for 24 h; for Stability, Freeze-thaw cycles, Accuracy / Stability, At −80 °C for a Month, Accuracy: rat plasma; for Stability, Freeze-thaw cycles, Accuracy: three freeze-thaw cycles −80 °C to 20 °C
Procedure: Stability of the four analytes during the sample storing and processing procedures was fully evaluated by analysis of QC samples.
Three QC samples (five samples for each) were tested for pre-treatment, post-treatment, three freeze-thaw cycles and long-term stabilities. Pre-treatment stability was assessed by exposing QC samples at room temperature for 4 h. Post-treatment stability was evaluated by placing QC samples in the auto-sampler at 4 °C for 24 h. For freeze–thaw cycle stability assessment, QC samples were repeatedly frozen and thawed for three cycles from −80 °C to 20 °C. […]

[3] = 7.5 mL/kg, group GG (extract of Gancao and Gansui), 7.5 mL/kg oral, normal rats, n = 6, mean ± S.D.
[4] = 15 mL/kg, group GSBXD, 15 mL/kg intragastrically, normal rats, n = 6, mean ± S.D.
[5] = 15 mL/kg, group GSBXD-GS (GSBXD minus Gansui), 15 mL/kg oral, normal rats, n = 6, mean ± S.D.
[6] = group GC (extract of Gancao), oral, normal rats, n = 6, mean ± S.D.
[7] = high QC concentration (1.23 × 10^3, 1.11 × 10^3, 1.14 × 10^3, 1.42 × 10^3 ng/mL for 1–4)
[8] = low QC concentration (1.91 × 10, 4.32, 1.78 × 10, 1.11 × 10 ng/mL for 1–4)
[9] = middle QC concentration (3.09 × 10^2, 1.38 × 10^2, 1.43 × 10^2, 1.77 × 10^2 ng/mL for 1–4)
[10] = 12 mL/kg, group GSBXD-GC (GSBXD minus Gancao), 12 mL/kg oral, normal rats, n = 6, mean ± S.D.
[11] = 12 mL/kg, group GSBXD-GG (GSBXD minus Gancao and Gansui), 12 mL/kg oral, normal rats, n = 6, mean ± S.D.

SMILES | AUC(0-t) [1, 3] [ng·h/mL] | Cmax [1, 3] [ng/mL] | Tmax [1, 3] [h] | AUC(0-t) [1, 4] [ng·h/mL] | Cmax [1, 4] [ng/mL] | Tmax [1, 4] [h] | half-life [1, 4] [h] | AUC(0-t) [1, 5] [ng·h/mL] | Cmax [1, 5] [ng/mL] | Tmax [1, 5] [h] | half-life [1, 5] [h] | Stability, Autosampler for 24 h, Accuracy [2, 7] [%] | Stability, Autosampler for 24 h, Accuracy [2, 8] [%] | Stability, Autosampler for 24 h, Accuracy [2, 9] [%] | Stability, Freeze-thaw cycles, Accuracy [2, 7] [%] | Stability, Freeze-thaw cycles, Accuracy [2, 8] [%] | Stability, Freeze-thaw cycles, Accuracy [2, 9] [%] | Stability, At −80 °C for a Month, Accuracy [2, 7] [%] | Stability, At −80 °C for a Month, Accuracy [2, 8] [%] | Stability, At −80 °C for a Month, Accuracy [2, 9] [%] | also measured
CC1(C)[C@@H](O[C@H]2O[C@H](C(=O)O)[C@@H](O)[C@H](O)[C@H]2O[C@@H]2O[C@H](C(=O)O)[C@@H](O)[C@H](O)[C@H]2O)CC[C@]2(C)[C@H]3C(=O)C=C4[C@@H]5C[C@@](C)(C(=O)O)CC[C@]5(C)CC[C@@]4(C)[C@]3(C)CC[C@@H]12 [Compound 1, glycyrrhizinic acid] | 788 ± 110 | 364 ± 46.2 | 0.64 ± 0.34 | 2630 ± 532 | 503 ± 199 | 0.33 | 5.93 ± 2.67 | 1280 ± 393 | 214 ± 55.4 | 1.67 ± 0.12 | 11.6 ± 5.74 | 87.36 | 93.94 | 92.23 | 94.33 | 98.83 | 91.02 | 98.18 | 89.99 | 91.37 | half-life [1, 3]: 9.29 ± 4.7 h; AUC(0-t) [1, 6]: 486 ± 136 ng·h/mL; Cmax [1, 6]: 147 ± 19.9 ng/mL; Tmax [1, 6]: 0.36 ± 0.16 h; half-life [1, 6]: 0.79 ± 0.39 h
O=C1C[C@@H](c2ccc(O[C@@H]3O[C@H](CO)[C@@H](O)[C@H](O)[C@H]3O)cc2)Oc2cc(O)ccc21 [Compound 2, liquiritin] | 788 ± 110 | 200 ± 42.4 | 0.32 ± 0.27 | 794 ± 142 | 193 ± 84.5 | 0.39 ± 0.14 | 7.04 ± 2.99 | 421 ± 222 | 98.9 ± 26.8 | 0.17 ± 0.11 | 6.84 ± 3.11 | 97.11 | 88.92 | 97.49 | 95.35 |  | 89.99 | 96.71 | 91.03 | 99.99 | half-life [1, 3]: 12.9 ± 4.76 h; AUC(0-t) [1, 6]: 797 ± 174 ng·h/mL; Cmax [1, 6]: 139 ± 33.5 ng/mL; Tmax [1, 6]: 0.5 ± 0.18 h; half-life [1, 6]: 5.26 ± 1.93 h
C[C@@]12C[C@@]3(O)O[C@@H](O1)[C@]1(COC(=O)c4ccccc4)[C@H]3C[C@@]12O[C@@H]1O[C@H](CO)[C@@H](O)[C@H](O)[C@H]1O [Compound 3, paeoniflorin] |  |  |  | 825 ± 96 | 82.8 ± 15.7 | 0.81 ± 0.34 | 12.6 ± 7.46 | 910 ± 476 | 101 ± 18 | 1.33 ± 0.37 | 7.9 ± 1.17 | 104.13 | 98.03 | 91.28 | 91.57 | 87.63 | 92.10 | 89.55 | 87.54 | 95.32 | Tmax ([1]; 12 mL/kg): 0.5 ± 0.28 h; AUC(0-t) [1, 10]: 362 ± 40.4 ng·h/mL; Cmax [1, 10]: 74.1 ± 26 ng/mL; Tmax [1, 10]: 0.31 ± 0.07 h; half-life [1, 10]: 16 ± 2.62 h; AUC(0-t) [1, 11]: 659 ± 411 ng·h/mL; Cmax [1, 11]: 150 ± 24.5 ng/mL; half-life [1, 11]: 21.4 ± 8.85 h
CC12CC(O)C3CC1(OC1OC(CO)C(O)C(O)C1O)C3(COC(=O)c1ccccc1)C(=O)O2 (stereo not drawn) [Compound 4, albiflorin] |  |  |  | 1110 ± 346 | 255 ± 98 | 0.33 ± 0.18 | 8.06 ± 1.44 | 514 ± 271 | 142 ± 39.8 | 0.28 ± 0.14 | 9.07 ± 0.87 | 99.91 | 97.15 | 91.22 | 98.33 | 93.49 | 102.34 | 88.48 | 101.5 | 79.13 | AUC(0-t) [1, 10]: 619 ± 130 ng·h/mL; Cmax [1, 10]: 88.5 ± 18.3 ng/mL; Tmax [1, 10]: 0.81 ± 0.62 h; half-life [1, 10]: 7.74 ± 0.74 h; AUC(0-t) [1, 11]: 785 ± 158 ng·h/mL; Cmax [1, 11]: 113 ± 25.8 ng/mL; Tmax [1, 11]: 0.56 ± 0.27 h; half-life [1, 11]: 8.73 ± 0.98 h

From paper PMC6272428 (Molecules, 2015)
